This is an account of results in patent US20220356186A1, “PERK INHIBITING PYRROLOPYRIMIDINE COMPOUNDS” (HiberCell, Inc., priority 2019, published 2022).

The target of assay [1] is T1, EIF2AK3 (PERK) catalytic domain (amino acids 536-1116) (Homo sapiens, UniProt Q9NZJ5).
T1 construct: EIF2AK3 (PERK) catalytic domain (amino acids 536-1116)
T1 sequence (Q9NZJ5 536-1116): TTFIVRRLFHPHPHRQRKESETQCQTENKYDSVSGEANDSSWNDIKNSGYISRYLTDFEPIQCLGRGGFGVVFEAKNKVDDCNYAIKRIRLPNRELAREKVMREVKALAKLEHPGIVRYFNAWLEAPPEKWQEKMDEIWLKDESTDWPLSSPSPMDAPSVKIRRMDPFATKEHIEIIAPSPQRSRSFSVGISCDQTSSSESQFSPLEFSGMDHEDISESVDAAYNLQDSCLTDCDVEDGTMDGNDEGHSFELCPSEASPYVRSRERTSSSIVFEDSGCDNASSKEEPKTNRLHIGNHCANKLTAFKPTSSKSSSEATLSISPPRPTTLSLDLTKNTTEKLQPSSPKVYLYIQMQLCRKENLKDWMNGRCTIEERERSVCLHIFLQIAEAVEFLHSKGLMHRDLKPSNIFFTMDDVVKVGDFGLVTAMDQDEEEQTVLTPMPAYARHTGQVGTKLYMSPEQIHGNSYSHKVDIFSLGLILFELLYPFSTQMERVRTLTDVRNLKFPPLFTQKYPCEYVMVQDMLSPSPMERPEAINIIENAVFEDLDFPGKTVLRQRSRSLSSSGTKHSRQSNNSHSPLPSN
Briefly: PERK in vitro activity assay (isolated), TR-FRET kinase assay. The format is biochemical. The note with it: isolated PERK enzyme, 1.5 μM ATP; read-out: Biochemical IC50. An excerpt: PERK In Vitro Activity Assay (Isolated):
In vitro Inhibition of PERK Enzyme Activity (isolated) Recombinant human EIF2AK2 (PKR) catalytic domain (amino acids 252-551), EIF2AK3 (PERK) catalytic domain (amino acids 536-1116), GFP-eIF2a substrate, and Terbium-labelled phospho-eIF2a antibody is obtained (Invitrogen, Carlsbad, Calif.).
Express and purify HIS-SUMO-GCN2 catalytic domain (amino acids 584-1019) from E. coli. Perform TR-FRET kinase assays in the absence or presence of inhibitors in a reaction buffer consisting of 50 mM HEPES, pH 7.5, 10 mM MgCb, 1.0 mM EGTA, and 0.01% Brij-35, and 100-200 nM GFP-eIF2a substrate. […] Add test compound, initiate the reaction by addition of enzyme, and incubate at room temperature for 45 minutes. Stop the reaction by addition of EDTA to a final concentration of 10 mM, add Terbium-labelled phospho-eIF2a antibody at a final concentration of 2 nM, and incubate for 90 minutes. Monitor the resulting fluorescence in an EnVison® Multilabel reader (PerkinElmer, Waltham, Mass.). Determine TR-FRET ratios and the resulting IC50 values using a 4-parameter nonlinear logistic equation as shown: Y=(A+((B−A)/(1+((C/x)[…])))) where, Y=% specific inhibition, A=Bottom of the curve, B=Top of the curve, C=absolute IC50 (concentration causing 50% inhibition), and D=hill slope.

Assay [2] deals with GFP-eIF2α in HEK293 cells. Briefly: PERK cellular assay, TR-FRET in HEK293-EGFP-eIF2a cells after tunicamycin-induced ER stress. The format is cell-based. The note with it: HEK293-EGFP-eIF2a cells, tunicamycin 2 hours, read-out: Cellular eIF2α IC50. As to the method: Stable cell lines were created in HEK293 cells using lentiviral particles harboring an expression vector for GFP-eIF2α. Cells were selected using puromycin and enriched using fluorescence activated cell sorting against GFP. HEK293-EGFP-eIF2a cells were plated at 5000 cells/well in 384-well assay plates and incubated overnight at 37° C., 5% CO2. Inhibitor compounds were added to the wells by Echo acoustic dispensing and incubated for 30 minutes at 37° C., 5% CO2 prior to induction of ER stress by addition of tunicamycin to […] for 2 hours. Cells were lysed and TR-FRET was measured in an EnVision plate reader (PerkinElmer). FRET ratio data was normalized to signal from lysates treated with DMSO vehicle control and plotted as percent inhibition against 10-point; 3-fold dilution series of inhibitors. IC50 values were calculated using 4-parameter logistical fitting in XLFit.

Like-named read-outs stand apart in the source and are kept apart here.

For the compound `Cc1cccc(CC(=O)Nc2ccc(-c3cn(C)c4nc(C)nc(N)c34)c(C)c2)n1` [Example 135, N-(4-(4-amino-2,7-dimethyl-7H-pyrrolo[2,3-d]pyrimidin-5-yl)-3-methylphenyl)-2-(6-methylpyridin-2-yl)acetamide], the IC50 lay in the range of 26 to 50 nM in assay [1] and 251 to 500 nM in assay [2] (Homo sapiens, HEK293, 2 h).

In the case of `Cc1nc(N)c2c(-c3c(C)cc(NC(=O)C(O)c4cccc(F)c4)cc3F)cn(C)c2n1` (stereo not shown) [Example 125, N-(4-(4-amino-2,7-dimethyl-7H-pyrrolo[2,3-d]pyrimidin-5-yl)-3-fluoro-5-methylphenyl)-2-(3-fluorophenyl)-2-hydroxyacetamide], the IC50 lay within 1 to 25 nM in assay [1] and 51 to 100 nM in assay [2] (Homo sapiens, HEK293, 2 h).

Regarding `Cc1nc(N)c2c(-c3ccc(NC(=O)C(O)c4cc(F)cc(F)c4)cc3C)cn(C)c2n1` (stereo not shown) [Example 52, N-(4-(4-amino-2,7-dimethyl-7H-pyrrolo[2,3-d]pyrimidin-5-yl)-3-methylphenyl)-2-(3,5-difluorophenyl)-2-hydroxyacetamide], the IC50 in assay [1] and in assay [2] was 1 to 25 nM each time.

For `Cc1nc(N)c2c(-c3ccc(NC(=O)C(O)c4ccccc4C)cc3C)cn(C)c2n1` (stereo not shown) [Example 40, N-(4-(4-amino-2,7-dimethyl-7H-pyrrolo[2,3-d]pyrimidin-5-yl)-3-methylphenyl)-2-hydroxy-2-(o-tolyl)acetamide], the IC50 in assay [1] lay in the range of 26 to 50 nM; in assay [2] (Homo sapiens, HEK293, 2 h), 101 to 250 nM.

In the case of `Cc1nc(N)c2c(-c3ccc(NC(=O)C(O)c4cccc(F)c4)c(F)c3C)cn(C)c2n1` (stereo not shown) [Example 13, N-(4-(4-amino-2,7-dimethyl-7H-pyrrolo[2,3-d]pyrimidin-5-yl)-2-fluoro-3-methylphenyl)-2-(3-fluorophenyl)-2-hydroxyacetamide], the IC50 lay within 51 to 100 nM in assay [1] and 1000 to 2000 nM in assay [2].

`Cn1cc(-c2ccc(NC(=O)C(O)c3cccc(F)c3)cc2F)c2c(N)ncnc21` (single isomer, unassigned) [Example 4, N-(4-(4-amino-7-methyl-7H-pyrrolo[2,3-d]pyrimidin-5-yl)-3-fluorophenyl)-2-(3-fluorophenyl)-2-hydroxyacetamide]: the half-inhibitory concentration (IC50) in assay [1] and in assay [2] was 1 to 25 nM each time.

On to `CCc1cccc(C(O)C(=O)Nc2ccc(-c3cn(C)c4nc(C)nc(N)c34)c(Cl)c2)c1` (stereo not shown) [Example 97, N-(4-(4-amino-2,7-dimethyl-7H-pyrrolo[2,3-d]pyrimidin-5-yl)-3-chlorophenyl)-2-(3-ethylphenyl)-2-hydroxyacetamide], for which the IC50 in assay [1] and in assay [2] was 1 to 25 nM each time.

Regarding `Cc1cc(NC(=O)Cc2ccc(Cl)cc2)ccc1-c1cn(C)c2ncnc(N)c12` [Example 151, N-(4-(4-amino-7-methyl-7H-pyrrolo[2,3-d]pyrimidin-5-yl)-3-methylphenyl)-2-(4-chlorophenyl)acetamide], the IC50 in assay [1] lay in the range of 1 to 25 nM; in assay [2] (Homo sapiens, HEK293, 2 h), 101 to 250 nM.

In the case of `COC(C(=O)Nc1ccc(-c2cn(C)c3ncnc(N)c23)c(C)c1)c1ccccc1` (stereo not shown) [Example 8, N-(4-(4-amino-7-methyl-7H-pyrrolo[2,3-d]pyrimidin-5-yl)-3-methylphenyl)-2-methoxy-2-phenylacetamide], the IC50 fell in the range of 1 to 25 nM in assay [1] and 101 to 250 nM in assay [2] (Homo sapiens, HEK293, 2 h).

Regarding `Cc1cc(NC(=O)Cc2cccc(Cl)c2)ccc1-c1cn(C)c2ncnc(N)c12` [Example 150, N-(4-(4-amino-7-methyl-7H-pyrrolo[2,3-d]pyrimidin-5-yl)-3-methylphenyl)-2-(3-chlorophenyl)acetamide], the IC50 fell in the range of 1 to 25 nM in assay [1] and 26 to 50 nM in assay [2] (Homo sapiens, HEK293, 2 h).

As for `Cn1cc(-c2ccc(NC(=O)C(O)c3cccc(F)c3)cc2C(F)(F)F)c2c(N)ncnc21` (stereo not shown) [Example 16, N-(4-(4-amino-7-methyl-7H-pyrrolo[2,3-d]pyrimidin-5-yl)-3-(trifluoromethyl)phenyl)-2-(3-fluorophenyl)-2-hydroxyacetamide], the IC50 in assay [1] was 1 to 25 nM; in assay [2] (Homo sapiens, HEK293, 2 h), 101 to 250 nM.
